Here are results for nine compounds from ChEMBL document CHEMBL1201862, “PubChem BioAssay data set” (2004).

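Method: 48-hour compound exposure of cells in 96-well plates, five concentrations, linear interpolation of endpoints. GI50: concentration for 50% inhibition of growth.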 Active and inactive are the calls of the source. Cut-off read from the data, not from the text of the source: active = GI50 up to about 1.1 µM and inactive = higher.

Test systems include UO-31; NCI-H522; KM12; HCC 2998; IGROV-1; HOP-62; OVCAR-5; CAKI-1; MOLT-4; OVCAR-3; HCT-15; SK-MEL-28; SK-OV-3; SNB-75; K562; OVCAR-4; HCT-116; SF-295; TK-10; SF-539.
Holding throughout (experiment): growth of human tumour cells (NCI), 48 h

`CCN(CC)c1c(C(=O)/C=C/c2ccc(Cl)cc2)c(-c2ccccc2)nn(C)c1=O`: the GI50 in the experiment on UO-31 was 1.73 µM (inactive); in the experiment with NCI-H522, 1.59 µM (inactive); in the experiment with KM12, 1.92 µM (inactive); in the experiment with HCC 2998, 1.85 µM (inactive); in the experiment on IGROV-1, 2.03 µM (inactive); with HOP-62, 2.12 µM (inactive). Moreover, the GI50 in the experiment on OVCAR-5 is 1.74 µM (inactive); in the experiment with CAKI-1, 3.56 µM (inactive); with MOLT-4 it was 2.12 µM (inactive); in the experiment on OVCAR-3, 2.16 µM (inactive); in the experiment on HCT-15, 1.69 µM; with SK-MEL-28, 1.62 µM (inactive). Further, the GI50 is 3.94 µM (inactive) in the experiment on SK-OV-3; 2.97 µM (inactive) with SNB-75; 2.54 µM (inactive) in the experiment on K562; 1.66 µM (inactive) with OVCAR-4; 1.67 µM (inactive) with HCT-116; 1.85 µM (inactive) in the experiment on SF-295. In the experiment on TK-10, the GI50 is 2.14 µM (inactive).

Regarding `Nc1ccc(S(=O)(=O)c2ccc(NCN3C(=O)NC(=O)C(=O)C3=O)cc2)cc1` [ALLANTODAPSONE], the GI50 in the experiment with UO-31, in the experiment on NCI-H522, in the experiment on KM12, with HCC 2998, in the experiment with IGROV-1 and in the experiment with HOP-62 was > 100 µM (inactive) throughout. Further, the GI50 in the experiment on OVCAR-5 is > 100 µM (inactive); with CAKI-1 it was > 100 µM (inactive); with MOLT-4 it was > 100 µM (inactive); in the experiment with OVCAR-3 it was > 100 µM (inactive); in the experiment with HCT-15, above 100 µM; with SK-MEL-28, > 100 µM (inactive). In addition, the GI50 with K562, in the experiment with OVCAR-4, with HCT-116, in the experiment on SF-295 and in the experiment with TK-10 was > 100 µM (inactive) throughout.

For the compound `CC[n+]1c(-c2ccccc2)c2cc(N)ccc2c2ccc(N)cc21` [HOMIDIUM BROMIDE], the GI50 in the experiment with KM12 is 2.49 µM (inactive); in the experiment on HCC 2998, 4.79 µM (inactive); in the experiment on SF-539 it was 1.53 µM (inactive); with OVCAR-5, 15.4 µM (inactive); in the experiment on CAKI-1, 16.9 µM (inactive); in the experiment on MOLT-4, 2.36 µM (inactive). Also, the GI50 in the experiment with OVCAR-3 is 3.07 µM (inactive); in the experiment with HCT-15, 55.5 µM; in the experiment with SK-MEL-28, 2.05 µM (inactive); with SK-OV-3, 3.52 µM (inactive); with SNB-75, 0.0372 µM (active); in the experiment on K562, 2.96 µM (inactive). The GI50 with OVCAR-4 was 4.44 µM (inactive); with HCT-116 it was 3.62 µM (inactive); in the experiment on SF-295 it was 2.82 µM (inactive); in the experiment with TK-10, 8.36 µM (inactive).

On to `C[Si](C)(N[Si](C)(C)OCCc1ccccc1)OCCc1ccccc1`, for which the GI50 with UO-31, in the experiment with KM12, in the experiment on HCC 2998, with IGROV-1, in the experiment with HOP-62 and in the experiment with OVCAR-5 was > 100 µM (inactive) throughout. Also, the GI50 is > 100 µM (inactive) in the experiment with CAKI-1; > 100 µM (inactive) in the experiment with OVCAR-3; above 100 µM in the experiment on HCT-15; > 100 µM (inactive) with SK-MEL-28; > 100 µM (inactive) with SK-OV-3; > 100 µM (inactive) in the experiment on SNB-75. In addition, the GI50 with OVCAR-4, in the experiment with HCT-116, with SF-295 and in the experiment on TK-10 was > 100 µM (inactive) in each case.

On to `CCN1CCC(O)(c2ccc(O)cc2)C(C(=O)c2ccc(O)cc2)C1` (stereo unspecified), for which the GI50 was 21.6 µM (inactive) with UO-31; 22.2 µM (inactive) in the experiment on KM12; > 10 µM (inactive) in the experiment on HCC 2998; 21.6 µM (inactive) with IGROV-1; > 100 µM (inactive) in the experiment with HOP-62; 21.1 µM (inactive) in the experiment on OVCAR-5. Moreover, the GI50 with MOLT-4 is 21.9 µM (inactive); in the experiment on OVCAR-3, 18.2 µM (inactive); in the experiment with HCT-15, 17.5 µM; with SK-MEL-28, 17 µM (inactive); in the experiment on SK-OV-3 it was > 100 µM (inactive); with SNB-75, 11.2 µM (inactive). The GI50 is 12 µM (inactive) in the experiment on K562; 27.7 µM (inactive) in the experiment with OVCAR-4; 20.3 µM (inactive) in the experiment with HCT-116; > 100 µM (inactive) in the experiment on SF-295; 17.3 µM (inactive) with TK-10.

`C1CCCCc2nc3c(nc2CCC1)c1nc2c(nc1c1nc4c(nc31)CCCCCCCC4)CCCCCCCC2`: the GI50 with UO-31 is > 100 µM (inactive); with KM12 it was > 100 µM (inactive); with HCC 2998, > 100 µM (inactive); with IGROV-1, > 100 µM (inactive); with HOP-62, 82.6 µM (inactive); in the experiment with SF-539, > 100 µM (inactive). The GI50 was > 100 µM (inactive) with OVCAR-5; > 10 µM (inactive) in the experiment with CAKI-1; > 100 µM (inactive) with MOLT-4; above 100 µM in the experiment on HCT-15; > 100 µM (inactive) with SK-MEL-28; > 100 µM (inactive) in the experiment on SK-OV-3. In addition, the GI50 with SNB-75, with K562, in the experiment with HCT-116, with SF-295 and in the experiment with TK-10 was > 100 µM (inactive) each time.

As to `O=C(O)C(SC(=S)c1ccc(C(=S)SC(C(=O)O)c2ccccc2)cc1)c1ccccc1` (stereo unspecified), the GI50 with UO-31 is 92.7 µM (inactive); in the experiment with KM12, > 100 µM (inactive); in the experiment with HCC 2998, > 100 µM (inactive); in the experiment with IGROV-1 it was > 100 µM (inactive); with HOP-62 it was > 100 µM (inactive); with SF-539, > 100 µM (inactive). Further, the GI50 in the experiment on OVCAR-5 is > 100 µM (inactive); in the experiment with MOLT-4 it was > 100 µM (inactive); in the experiment with OVCAR-3, 56.5 µM (inactive); with HCT-15, 42.2 µM; in the experiment on SK-MEL-28 it was 99.3 µM (inactive); in the experiment on SK-OV-3, > 100 µM (inactive). In addition, the GI50 in the experiment with SNB-75 is 35 µM (inactive); in the experiment on K562, 44.5 µM (inactive); in the experiment on HCT-116, > 100 µM (inactive); with SF-295, > 100 µM (inactive); in the experiment on TK-10, > 100 µM (inactive).

Regarding `COc1ccc(Nc2cnc3cc(N)ccc3n2)cc1OC`, the GI50 is > 100 µM (inactive) with UO-31; 70.5 µM (inactive) with KM12; 29.2 µM (inactive) with HCC 2998; > 100 µM (inactive) with IGROV-1; 61.1 µM (inactive) with HOP-62; > 100 µM (inactive) in the experiment on OVCAR-5. The GI50 in the experiment on MOLT-4 was 36.5 µM (inactive); in the experiment with OVCAR-3, > 100 µM (inactive); in the experiment on HCT-15, above 100 µM; with SK-MEL-28, > 100 µM (inactive); in the experiment on SK-OV-3 it was > 100 µM (inactive); in the experiment on SNB-75, > 100 µM (inactive). Further, the GI50 is 46.8 µM (inactive) in the experiment with K562, 86.1 µM (inactive) in the experiment on HCT-116, 34.3 µM (inactive) in the experiment with SF-295 and > 100 µM (inactive) in the experiment on TK-10.

Turning to `COc1ccc(-c2cc(N3CCN(c4ccccc4)CC3)c(C#N)c(=O)o2)cc1`, the GI50 is 13.2 µM (inactive) in the experiment with UO-31; > 100 µM (inactive) in the experiment on KM12; 65.6 µM (inactive) with HCC 2998; 24.8 µM (inactive) with IGROV-1; 11.3 µM (inactive) in the experiment on SF-539; > 100 µM (inactive) in the experiment with OVCAR-5. Further, the GI50 in the experiment with CAKI-1 is 16.7 µM (inactive); in the experiment on MOLT-4, > 100 µM (inactive); with HCT-15, 65.2 µM; with SK-MEL-28, 15.6 µM (inactive); in the experiment with SNB-75 it was 7.41 µM (inactive); in the experiment with K562, 61 µM (inactive). The GI50 with OVCAR-4 was 4.59 µM (inactive); in the experiment with HCT-116 it was 62.8 µM (inactive); with SF-295, 14.3 µM (inactive); in the experiment with TK-10, 22.4 µM (inactive).
